# System: Staphylococcus aureus
# Test: Antibacterial activity against methicillin-resistant Staphylococcus aureus assessed as bacterial killing at 16 ug/ml by serial dilution method after 24 hrs
# Format: functional
smiles,measurement,value
CN[C@H](CC(C)C)C(=O)N[C@H]1C(=O)N[C@@H](CC(N)=O)C(=O)N[C@H]2C(=O)N[C@H]3C(=O)N[C@H](C(=O)N[C@H](C(=O)O)c4cc(O)cc(O)c4-c4cc3ccc4O)[C@H](O)c3ccc(c(Cl)c3)Oc3cc2cc(c3O[C@@H]2O[C@H](CO)[C@@H](O)[C@H](O)[C@H]2O[C@H]2C[C@](C)(N)[C@H](O)[C@H](C)O2)Oc2ccc(cc2Cl)[C@H]1O [VANCOMYCIN],log10CFU/ml,0.82

# — ChEMBL document CHEMBL1150799, “Vancomycin in vitro bactericidal activity and its relationship to efficacy in clearance of methicillin-resistant Staphylococcus aureus bacteremia” (2007)
